From ChEMBL document CHEMBL1201862, “PubChem BioAssay data set” (2004)
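Each compound was tested at five concentrations against cells in 96-well plates for 48 hours. Here, GI50 denotes the concentration required for 50% inhibition of growth.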 Calls of active or inactive are those of the source. No stated cut-off is given here; in the data, active = GI50 up to about 1.1 µM and inactive = higher.

What was measured:
Experiment in all cases: NCI-60 cell line screen, 48 h
NCI-H460 = tested on: NCI-H460
EKVX = tested on: EKVX
TK-10 = tested on: TK-10
NCI-H226 = tested on: NCI-H226
SR = tested on: SR
SK-MEL-2 = tested on: SK-MEL-2
UACC-257 = tested on: UACC-257
NCI-H522 = tested on: NCI-H522
PC-3 = tested on: PC-3
ACHN = tested on: ACHN
CCRF-CEM = tested on: CCRF-CEM
MOLT-4 = tested on: MOLT-4
M14 = tested on: M14
SN12C = tested on: SN12C
OVCAR-8 = tested on: OVCAR-8
HT-29 = tested on: HT-29
COLO 205 = tested on: COLO 205
MDA-MB-435 = tested on: MDA-MB-435
A498 = tested on: A498
T47D = tested on: T47D

SMILES	GI50 (NCI-H460)	GI50 (EKVX)	GI50 (TK-10)	GI50 (NCI-H226)	GI50 (SR)	GI50 (SK-MEL-2)	GI50 (UACC-257)	GI50 (NCI-H522)	GI50 (PC-3)	GI50 (ACHN)	GI50 (CCRF-CEM)	GI50 (MOLT-4)	GI50 (M14)	GI50 (SN12C)	GI50 (OVCAR-8)	GI50 (HT-29)	GI50 (COLO 205)	GI50 (MDA-MB-435)	GI50 (A498)	GI50 (T47D)
O=C1c2ccccc2-c2nc3ccc(O)cc3n21	> 100 µM (inactive)	> 100 µM (inactive)	> 100 µM (inactive)	> 100 µM (inactive)	> 100 µM (inactive)	> 100 µM (inactive)	> 100 µM (inactive)	> 100 µM (inactive)	> 100 µM (inactive)	> 100 µM (inactive)	> 100 µM (inactive)	> 100 µM (inactive)	> 100 µM (inactive)	> 100 µM (inactive)	> 100 µM (inactive)	> 100 µM (inactive)	> 100 µM (inactive)			
CC(=O)Oc1cc(OC(C)=O)c2c(C)cc(=O)oc2c1		> 100 µM (inactive)	97.7 µM (inactive)	> 100 µM (inactive)	> 100 µM (inactive)	> 100 µM (inactive)	> 100 µM (inactive)		> 100 µM (inactive)	> 100 µM (inactive)	> 100 µM (inactive)	> 100 µM (inactive)	87.3 µM (inactive)	> 100 µM (inactive)	> 100 µM (inactive)	> 100 µM (inactive)	> 100 µM (inactive)	> 100 µM (inactive)	41 µM (inactive)	
O=[N+]([O-])c1ccc(C2CC(c3ccc(NCc4nc5ccccc5[nH]4)cc3)=NO2)cc1 (centres undefined)	15.6 µM (inactive)		89.3 µM (inactive)		4.93 µM (inactive)	> 100 µM (inactive)		27.9 µM (inactive)		33.3 µM (inactive)	15.6 µM (inactive)	6.92 µM (inactive)	33.5 µM (inactive)	30.7 µM (inactive)	37.7 µM (inactive)	38.5 µM (inactive)	> 100 µM (inactive)		15.3 µM (inactive)	
C/C(=N\NS(=O)(=O)c1ccc([N+](=O)[O-])cc1)c1ccc[n+]([O-])n1	0.776 µM (active)	6.9 µM (inactive)	11.6 µM (inactive)	1.77 µM (inactive)	3.92 µM (inactive)	1.92 µM (inactive)	3.8 µM (inactive)	1.95 µM (inactive)		2.44 µM (inactive)	3.05 µM (inactive)	2.92 µM (inactive)	1.8 µM (inactive)	2.97 µM (inactive)	1.76 µM (inactive)	2.11 µM (inactive)	2.67 µM (inactive)		1.98 µM (inactive)	
CC(=O)OCc1nc(C#N)c(N)o1	> 100 µM (inactive)	> 100 µM (inactive)	> 100 µM (inactive)	> 100 µM (inactive)	> 100 µM (inactive)	> 100 µM (inactive)	> 100 µM (inactive)	> 100 µM (inactive)	> 100 µM (inactive)	> 100 µM (inactive)	> 100 µM (inactive)	> 100 µM (inactive)		> 100 µM (inactive)		> 100 µM (inactive)	> 100 µM (inactive)	> 100 µM (inactive)	> 100 µM (inactive)	
CCCCNC(=NC#N)NCCCC	> 100 µM (inactive)	> 100 µM (inactive)	> 100 µM (inactive)	> 100 µM (inactive)	78.7 µM (inactive)	> 100 µM (inactive)	> 100 µM (inactive)	> 100 µM (inactive)		> 100 µM (inactive)		> 100 µM (inactive)	> 100 µM (inactive)	> 100 µM (inactive)	> 100 µM (inactive)	> 100 µM (inactive)	38.2 µM (inactive)		> 100 µM (inactive)	
OCC1OC(NCCNCCNC2OC(CO)C(O)C(O)C2O)C(O)C(O)C1O (centres undefined)	> 100 µM (inactive)	> 100 µM (inactive)	> 100 µM (inactive)	> 100 µM (inactive)	> 100 µM (inactive)	> 100 µM (inactive)	> 100 µM (inactive)	> 100 µM (inactive)	> 100 µM (inactive)	> 100 µM (inactive)	> 100 µM (inactive)	> 100 µM (inactive)	> 100 µM (inactive)	> 100 µM (inactive)	> 100 µM (inactive)	> 100 µM (inactive)	> 100 µM (inactive)		> 100 µM (inactive)	> 100 µM (inactive)
CC1(C)CC(=O)C(=CNC(=O)c2ccncc2)C(=O)C1	> 100 µM (inactive)	> 100 µM (inactive)	> 100 µM (inactive)	> 100 µM (inactive)		> 100 µM (inactive)	> 100 µM (inactive)	> 100 µM (inactive)	> 100 µM (inactive)	> 100 µM (inactive)	> 100 µM (inactive)	> 100 µM (inactive)	> 100 µM (inactive)	> 100 µM (inactive)	> 100 µM (inactive)	> 100 µM (inactive)	> 100 µM (inactive)	> 100 µM (inactive)		
N#CCCN(c1ccc(/C=N/c2ccccc2)cc1)S(=O)(=O)c1ccccc1		35.7 µM (inactive)	> 100 µM (inactive)	> 100 µM (inactive)	> 100 µM (inactive)	> 100 µM (inactive)	> 100 µM (inactive)	> 100 µM (inactive)			> 100 µM (inactive)	> 100 µM (inactive)	8.93 µM (inactive)	> 100 µM (inactive)	> 100 µM (inactive)	17 µM (inactive)	> 100 µM (inactive)		> 100 µM (inactive)	
CC(C)(C)OC(=O)CN1CCNCCN(CC(=O)OC(C)(C)C)CCNCC1	63.2 µM (inactive)	> 100 µM (inactive)	> 100 µM (inactive)	> 100 µM (inactive)	26.9 µM (inactive)	> 100 µM (inactive)	> 100 µM (inactive)	> 100 µM (inactive)	> 100 µM (inactive)	> 100 µM (inactive)	57 µM (inactive)	64.7 µM (inactive)		> 100 µM (inactive)	> 100 µM (inactive)	33.3 µM (inactive)	> 100 µM (inactive)	98.9 µM (inactive)	> 100 µM (inactive)	
CC(C)(C)OC(=O)NC(Cc1ccc(O)cn1)C(N)=O (centres undefined)	> 100 µM (inactive)	> 100 µM (inactive)	> 100 µM (inactive)	> 100 µM (inactive)	> 100 µM (inactive)		> 100 µM (inactive)	> 100 µM (inactive)	> 100 µM (inactive)	> 100 µM (inactive)	> 10 µM (inactive)	> 100 µM (inactive)		> 100 µM (inactive)	> 100 µM (inactive)	> 100 µM (inactive)	> 100 µM (inactive)	> 100 µM (inactive)	> 100 µM (inactive)	
O=C(Cc1ccccc1)c1ccc2[nH]c(=O)oc2c1	38.8 µM (inactive)	12.5 µM (inactive)	97.3 µM (inactive)	1.22 µM (inactive)	38.3 µM (inactive)	32.6 µM (inactive)	43.2 µM (inactive)		41.3 µM (inactive)	41.4 µM (inactive)	> 100 µM (inactive)	31.6 µM (inactive)	47 µM (inactive)	> 100 µM (inactive)	23.2 µM (inactive)	37.5 µM (inactive)	66.2 µM (inactive)	33.7 µM (inactive)	> 100 µM (inactive)	
CCOC(=O)/N=C(\N)SCc1ccccc1	> 100 µM (inactive)	> 100 µM (inactive)	> 100 µM (inactive)	7.33 µM (inactive)	31.6 µM (inactive)	44.6 µM (inactive)	> 100 µM (inactive)	> 100 µM (inactive)		> 100 µM (inactive)	24.7 µM (inactive)	26.5 µM (inactive)	> 100 µM (inactive)	> 100 µM (inactive)	> 100 µM (inactive)	> 100 µM (inactive)			> 100 µM (inactive)	
Cc1cc(C)nc(Nc2nc3cc([N+](=O)[O-])ccc3[nH]2)n1	> 100 µM (inactive)	> 100 µM (inactive)	> 100 µM (inactive)	> 100 µM (inactive)	> 100 µM (inactive)	> 100 µM (inactive)	> 100 µM (inactive)	> 100 µM (inactive)		> 100 µM (inactive)	> 100 µM (inactive)	> 100 µM (inactive)	> 100 µM (inactive)	> 100 µM (inactive)	> 100 µM (inactive)	> 100 µM (inactive)	> 100 µM (inactive)		> 100 µM (inactive)	
Cc1nn(-c2nc3ccccc3s2)c2c1C(=O)c1ccccc1-2	> 100 µM (inactive)	> 100 µM (inactive)	> 100 µM (inactive)		> 100 µM (inactive)	> 100 µM (inactive)	> 100 µM (inactive)	> 100 µM (inactive)		> 100 µM (inactive)			> 100 µM (inactive)	> 100 µM (inactive)		> 100 µM (inactive)	> 100 µM (inactive)		> 100 µM (inactive)	
O=C(/C=N/c1ccccc1[S-])c1ccco1.O=C(/C=N/c1ccccc1[S-])c1ccco1.[Zn+2]	3.87 µM (inactive)		16.7 µM (inactive)		6.58 µM (inactive)	15.8 µM (inactive)	12.5 µM (inactive)	10 µM (inactive)		5.46 µM (inactive)	2.95 µM (inactive)	5.2 µM (inactive)	6.53 µM (inactive)	10 µM (inactive)	6.37 µM (inactive)	18.7 µM (inactive)	17.5 µM (inactive)		21.5 µM (inactive)	
COc1ccc(/C=C/c2cc(OC)c(O[Si](C)(C)C(C)(C)C)c(OC)c2)cc1	42.2 µM (inactive)	> 100 µM (inactive)		30.3 µM (inactive)	> 10 µM (inactive)	> 100 µM (inactive)	28.4 µM (inactive)	> 100 µM (inactive)		> 100 µM (inactive)	58.7 µM (inactive)	63.4 µM (inactive)	> 100 µM (inactive)	> 100 µM (inactive)	> 100 µM (inactive)	> 100 µM (inactive)	> 100 µM (inactive)		> 100 µM (inactive)	
